Experimental findings from patent US20040220268A1, “Compound that directly stimulates phospholipase C activity” (priority 2003, published 2004) are described below.

The subject of one test is human neutrophils. The test is described as follows: [Ca2+]i measurement with fura-2 in neutrophils. It counts as cell-based. Particulars: for effect on calcium signal induced by m-3M3FBS: pretreatment with 4 μM, m-3M3FBS 25 μM. As to the method: Fura-2-loaded neutrophils were stimulated with m-3M3FBS or o-3M3FBS at 25 μM in extracellular calcium containing 2 mM or extracellular free calcium conditions. The results shown are representative of three independent experiments (A). Prepared neutrophils were loaded with fura-2 and then stimulated with 25 μM of m-3M3FBS in the absence or in the presence of 4 μM of U-73122 or U-73343 (B). Changes in 340 nm/380 nm excitation ratio were monitored, and converted to [Ca^2+]i levels. Data are presented as means ±S. E. M. of three independent experiments.
(§1) Freshly prepared human neutrophils were incubated in serum free RPMI 1640 medium with 3 μM of fura-2/AM at 37° C. for 30 min with continuous stirring. After washing with serum free RPMI 1640 medium, the cells were suspended in serum free RPMI containing 250 μM of sulfinpyrazone to prevent dye leakage. About 2×10^6 cells were suspended in Ca^2+ free Locke's solution (158.4 mM NaCl, 5.6 mM KCl, 1.2 mM MgCl2, 5 mM HEPES pH 7.3, 10 mM glucose, and 0.2 mM EGTA) for each measurement. Changes in the fluorescence ratio were measured at an emission wavelength of 500 nm for dual excitation wavelengths at 340 nm and 380 nm. The calibration of the fluorescence ratio versus [Ca^2+]i was performed as described by Grynkiewicz (Grynkiewicz et al., 1985).

The test system of the next test is Gs-proteins. The test is described as follows: Cyclic AMP generation (radio receptor assay). Particulars: human neutrophils; m-3M3FBS 25 μM, histamine 100 μM. It counts as cell-based. As to the method:
(§2) Isolated neutrophils were preincubated with PTX (1 μg/ml) or vehicle for 90 min at 37° C. and stimulated with m-3M3FBS, FMLF, or ATP at concentrations of 25, 1, and 500 μM, respectively. Changes in the excitation ratios at 340 nm/380 nm were monitored. Data are presented as means ±S. E. M. of two independent experiments (A). cAMP levels were determined by a radio receptor assay. Prepared cells were treated with m-3M3FBS (25 μM) or histamine (100 μM) and then lysed with Tris-EDTA. After removing the supernatant, [ 3H] cAMP and protein were added, and the amount of [^3H] cAMP-protein complex was determined. The amount of unlabeled cAMP (in the sample) was then calculated by measuring the protein-bound radioactivity. Data are presented as means ±S. E. M. of two independent experiments (B). […] RGS2-GFP inducible HeLa cells were cultured for 48 h in the absence or in the presence of tetracycline and loaded with fura-2. Cells were treated with histamine (100 μM) or m-3M3FBS (25 μM), and changes in the 340 nm/380 nm ratios were monitored and converted to [Ca^2+]i values. The results shown are representative of three independent experiments (C).

In another test the test system is Gq-proteins. Description: [Ca2+]i in RGS2-GFP inducible HeLa cells. In kind it is cell-based, human. Particulars: histamine 100 μM, m-3M3FBS 25 μM. The protocol: as §2
pRevTRE vector containing the cDNA of rat RGS2-GFP was transfected into Hela Tet-off cells using Lipofectamine. Selection was performed in DMEM supplemented with 2 μg/ml of tetracycline and 500 μg/ml of hygromycin B. Two weeks later, several well-isolated colonies were picked out and analyzed by western blotting to determine the expression level of RGS2 in the absence of tetracycline. For these experiments, HeLa cells were cultured for 48 h in the absence or in the presence of tetracycline.
as §1

Test [1] concerns PTX-sensitive Gi-proteins. Description: PTX sensitivity of [Ca2+]i increase in neutrophils. It counts as cell-based, human. Particulars: fMLF 1 μM. As to the method:
Isolated neutrophils were preincubated with PTX (1 μg/ml) or vehicle for 90 min at 37° C. and stimulated with m-3M3FBS, FMLF, or ATP at concentrations of 25, 1, and 500 μM, respectively. Changes in the excitation ratios at 340 nm/380 nm were monitored. Data are presented as means ±S. E. M. of two independent experiments (A). cAMP levels were determined by a radio receptor assay. Prepared cells were treated with m-3M3FBS (25 μM) or histamine (100 μM) and then lysed with Tris-EDTA. After removing the supernatant, [ 3H] cAMP and protein were added, and the amount of [^3H] cAMP-protein complex was determined. The amount of unlabeled cAMP (in the sample) was then calculated by measuring the protein-bound radioactivity. Data are presented as means ±S. E. M. of two independent experiments (B). RGS2-GFP inducible HeLa cells were cultured for 48 h in the absence or in the presence of tetracycline, and the induction of RGS2-GFP was confirmed by Western blot analysis using anti-GFP antibody (C). RGS2-GFP inducible HeLa cells were cultured for 48 h in the absence or in the presence of tetracycline and loaded with fura-2. Cells were treated with histamine (100 μM) or m-3M3FBS (25 μM), and changes in the 340 nm/380 nm ratios were monitored and converted to [Ca^2+]i values. The results shown are representative of three independent experiments (C).
as §1

With `COc1ccc2c(c1)CC[C@@H]1[C@@H]2CC[C@]2(C)[C@@H](NCCCCCCN3C(=O)C=CC3=O)CC[C@@H]12` [U-73122, reference compound], in the test with human neutrophils (preincubation in the presence of extracellular calcium, data not shown), the “effect on m-3M3FBS-induced calcium signal” value is “completely blocked”. The “effect on calcium signal induced by m-3M3FBS” value in the test on human neutrophils was “complete inhibition”.

Regarding `COc1ccc2c(c1)CC[C@@H]1[C@@H]2CC[C@]2(C)[C@@H](NCCCCCCN3C(=O)CCC3=O)CC[C@@H]12` [U-73343, reference compound], the “effect on calcium signal induced by m-3M3FBS” value in the test on human neutrophils is given as “no effect”.

With `NCCc1c[nH]cn1` [histamine, reference compound], the “intracellular cAMP level” value in the test on Gs-proteins is given as “potently induce cAMP production”. The “[Ca2+]i increase” value in the test with Gq-proteins (HeLa cells in the presence of tetracycline (RGS2 not induced)) is “caused [Ca^2+]i increases”. The “effect of RGS2 induction on the induced calcium response” value in the test with Gq-proteins (HeLa cells overexpressing RGS2) is on record as “completely blocked”.

Regarding fMLF, the “effect of PTX preincubation on the induced calcium increase” value in test [1] (PTX 1 μg/ml for 90 min, m-3M3FBS 25 μM) is “inhibited”. Besides, in test [1] (neutrophils, without PTX), the “[Ca2+]i increase” value was “induced [Ca^2+]i increase”.
